Entries after “also recorded” stand apart in the source; their conditions may differ. Counter-ions that a name gives are not always drawn.
Assays:
[1] = system: individual single vagal fibers (mesenteric nerve bundle of jejunal segment); assay: Ex vivo vagal nerve fiber recording, test substance in lumen of jejunal segment, post hoc single unit burst analysis; set-up: species or system BALB/c mice; settings: for Average inter-pulse duration, lower 95% CI / Average inter-pulse duration, upper 95% CI / Burst duration, lower 95% CI / Burst duration, upper 95% CI / Inter-burst duration, lower 95% CI / Inter-burst duration, upper 95% CI / Inter-pulse duration within bursts, lower 95% CI / Inter-pulse duration within bursts, upper 95% CI: drug in lumen; for Fraction average inter-pulse duration / Fraction burst duration / Fraction inter-burst duration / Fraction inter-pulse duration within bursts: fractional change (treatment−control)/control; for Fraction average inter-pulse duration: luminal fluoxetine 30 μM, sertraline 10 μM, bupropion 10 μM, JB-1 10^9 cfu/mL, squalamine 10 μM; for Fraction burst duration / Fraction inter-burst duration / Fraction inter-pulse duration within bursts: same luminal concentrations
Description: Adult BALB/c mice were killed by cervical dislocation. Then a 2-3 cm long jejunal segment with attached mesenteric tissue was removed and the oral and anal ends of the jejunal segment were cannulated with plastic tubing, gently emptied of contents by perfusing the lumen with Krebs buffer using a 3 mL plastic syringe whose tip was inserted into the oral opening. The cleaned jejunal segment was placed into a polystyrene petri dish (Falcon 351006, 50 mm×9 mm, Corning, N.Y., USA) filled with Krebs buffer of the following composition (in mM): 118 NaCl, 4.8 KCl, 25 NaHCO3, 1.0 NaH2PO4, 1.2 MgSO4, 11.1 glucose, and 2.5 CaCl2) bubbled with carbogen (95% 02 and 5% 002). The bottom of the dish was previously lined 1-2 mm deep with cured silicone elastomer SYLGARD®, Dow Corning, MI, USA.
Next the mesenteric nerve bundle was isolated by careful dissection under a stereomicroscope (Leika) using pointed number 5 forceps (Fine Science Tools), and the dish and contents were transferred to an inverted microscope (Nikon).
The gut segment and attached mesenteric tissue was then pinned linearly, without stretching, from oral to anal in the dish by pushing fine insect pins through the adherent mesentery into the silicone elastomer SYLGARD®. The lumen was gravity perfused (1 ml/min) at room temperature (20-25° C.), with oxygenated Krebs buffer and using several Mariotti bottles (McCarthy, Science 80: 100, 1934) attached to a plastic manifold (World Precision Instruments, Sarasota, Fla., USA). The serosal compartment was separately perfused with pre-warmed (35° C.) Krebs buffer at 4 ml/min. 3 μM nicardipine hydrochloride was added to the latter Krebs buffer to paralyze the smooth muscle to isolate chemosensory afferent signals from motility-related vagal responses (Perez-Burgos et al., Am J Physiol Gastrointest Liver Physiol 304: G211-220, 2013).
The nerve bundle was gently sucked onto a glass pipette attached to a patch-clamp electrode holder (CV-7B; Molecular Devices, Sunnyvale, Calif.), and extracellular nerve recordings were performed using a Multi-Clamp 700B amplifier and Digidata 1440A signal converter (Molecular Devices). Electrical signals were bandpass-filtered at 0.1-2 kHz, sampled at 20 kHz, and stored on a personal computer running pClamp 10 software (Molecular Devices) for post hoc analysis. Constitutive multiunit electrical activity was always recorded from the mesenteric nerve bundle even when the lumen was perfused with only Krebs buffer. Baseline recordings with Krebs buffer in the lumen were performed for 15 min, after which the luminal perfusate was switched to one containing Krebs buffer with substances to be tested (fluoxetine 30 μM, sertraline 10 μM, bupropion (WELLBUTRIN®) 10 μM, Lactobacillus rhamnosus JB-1 10^9 cfu/mL, or squalamine 10 μM). Recording in the presence of test substances was performed for up to 40 min after which the luminal perfusate was again switched to Krebs buffer and recording continued for up to 30 min.
Single units representing discharge from individual single vagal fibers were discriminated and identified by their unique spike waveform shape and amplitude (Rong et al., J Physiol 560: 867-881, 2004) using Dataview computer software (Heitler, Journal of Undergraduate Neuroscience Education 6: A1-A7, 2007). Dataview uses principal component analysis to sort the recorded multiunit spikes into individual single unit categories according to shape and amplitude (Heitler, Journal of Neuroscience Methods 185: 151-164, 2009).
Control and treatment periods were identified from event markers inserted at the time of recording. Then, for each channel (color-coded unit), spike bursts were detected using the “Poisson surprise” method devised by Legéndy & Salcman (Legendy & Salcman, J Neurophysiol 53: 926-939, 1985). A surprise was defined as −log 10(p), where p is the probability of a set of events occurring this close together by chance. […]

[2] = system: BALB/c mice (depressive-like behavior); assay: Tail Suspension Test (TST) after oral treatment, intact and vagotomized mice; assay type: in vivo; settings: for effect on depressive and anxiety behavior in vagotomized mice: sub-diaphragmatic vagotomy prior to oral administration; for dependency of the effect on the vagus nerve: vagotomized mice compared to mice with an intact vagus nerve; for depressive and anxiety behavior in mice: oral administration, intact vagus nerve
Description: BALB/c mice were orally fed antidepressants fluoxetine (18 mg/kg per day), sertraline (6 mg/kg per day) and bupropion (WELLBUTRIN®) (6 mg/kg per day) in the drinking water for 14 days, or JB-1 (2.5-4×10^9 bacteria/day) in the drinking water for 28 days.
1 day following oral treatments with the antidepressants, the BALB/c mice were tested for depressive-like behavior with the tail suspension test. Mice were removed from the colony room and moved to a behavioral testing room where they were allowed to habituate for 30 min. Following this period, mice were suspended by the tail using laboratory tape measured to 17 cm (Can et al., Journal of Visualized Experiments 59: e3769, 2012) from a suspension bar in a position whereby they could not escape or hold on to any surfaces. 2 cm of tape was affixed to the mouse tail with the remaining 15 cm used for suspension of the mouse. Animals were left suspended for a period of 6 mins. Animal behavior was video recorded and scored by a blinded observer for freezing behavior. Freezing was calculated as a percentage of total time. Following behavioral testing mice were returned to the housing room and resumed oral treatments for the duration of the study.
The Tail Suspension Test is a simple screening test for the behavioral effects of antianxiety agents and antidepressants in rodents. This test assesses the inter-individual differences in responses to stressful situations measured by duration of immobility.

[3] = system: individual single vagal fibers (mesenteric nerve bundle of jejunal segment); assay: Ex vivo vagal nerve fiber recording from mice orally fed antidepressants, lumen perfused with buffer only; set-up: species or system BALB/c mice; settings: fed in the drinking water for 14 days; fluoxetine 18, sertraline 6, bupropion 6 mg/kg per day
Description: The procedure described above in connection with Example 1 and 2 was repeated for the BALB/c mice orally fed with antidepressants fluoxetine (18 mg/kg per day), sertraline (6 mg/kg per day) and bupropion (WELLBUTRIN®) (6 mg/kg per day) in the drinking water for 14 days. Following the oral treatment, the mice were sacrificed and a jejunal segment with mesenteric tissue was recovered as described in Example 1. In this example, the lumens of the jejunal segments were, however, perfused only with KREPS buffer.
FIG. 16 illustrates the mean interval between spike firing, i.e., average inter-pulse durations, for luminal Krebs control, i.e., from control mice that have not been treated with any antidepressants, and for mice fed with fluoxetine, sertraline or bupropion (WELLBUTRIN®).

[4] = system: patients with Parkinson's disease (PD) and severe constipation; settings: cited from earlier work
[5] = system: colonic motility; settings: applied intraluminally in mice; cited from earlier work
[6] = system: vagal afferent; settings: aged mice with reduced firing frequency; cited from earlier work

## CC(NC(C)(C)C)C(=O)c1cccc(Cl)c1 (stereo not drawn) [Bupropion, bupropion]
[1]
  Average inter-pulse duration, lower 95% CI: 896 ms
  Average inter-pulse duration, upper 95% CI: 1081 ms
  Burst duration, lower 95% CI: 412 ms
  Burst duration, upper 95% CI: 543 ms
  Inter-burst duration, lower 95% CI: 49779 ms
  Inter-burst duration, upper 95% CI: 66105 ms
  Inter-pulse duration within bursts, lower 95% CI: 105 ms
  Inter-pulse duration within bursts, upper 95% CI: 124 ms
  Fraction average inter-pulse duration: 0.2919
  Fraction burst duration: 0.1778
  Fraction inter-burst duration: 1.152
  Fraction inter-pulse duration within bursts: 0.01576
[2]
  effect on depressive and anxiety behavior in vagotomized mice: present
  dependency of the effect on the vagus nerve: not to be dependent on the vagus nerve
[3]
  average inter-pulse durations as compared to control mice: no difference

## CNCCC(Oc1ccc(C(F)(F)F)cc1)c1ccccc1 (stereo not drawn) [Fluoxetine, fluoxetine]
[1]
  Average inter-pulse duration, lower 95% CI: 612 ms
  Average inter-pulse duration, upper 95% CI: 983 ms
  Burst duration, lower 95% CI: 510 ms
  Burst duration, upper 95% CI: 771 ms
  Inter-burst duration, lower 95% CI: 11524 ms
  Inter-burst duration, upper 95% CI: 44175 ms
  Inter-pulse duration within bursts, lower 95% CI: 101 ms
  Inter-pulse duration within bursts, upper 95% CI: 138 ms
  Fraction average inter-pulse duration: −0.3964
  Fraction burst duration: 0.6424
  Fraction inter-burst duration: −0.1795
  Fraction inter-pulse duration within bursts: 0.2705
[1]; listed as fluoxetine
  Inter-burst duration, lower 95% CI: 11 524 ms
  Inter-burst duration, upper 95% CI: 44 175 ms
[2]
  depressive and anxiety behavior in mice: decreased
  effect on depressive and anxiety behavior in vagotomized mice: disappeared; also recorded: no effect
  dependency of the effect on the vagus nerve: dependent on the vagus nerve

## CN[C@H]1CC[C@@H](c2ccc(Cl)c(Cl)c2)c2ccccc21 [Sertraline, sertraline]
[1]
  Average inter-pulse duration, lower 95% CI: 386 ms
  Average inter-pulse duration, upper 95% CI: 614 ms
  Burst duration, lower 95% CI: 516 ms
  Burst duration, upper 95% CI: 676 ms
  Inter-burst duration, lower 95% CI: 16160 ms
  Inter-burst duration, upper 95% CI: 36270 ms
  Inter-pulse duration within bursts, lower 95% CI: 87 ms
  Inter-pulse duration within bursts, upper 95% CI: 110 ms
  Fraction average inter-pulse duration: −0.1627
  Fraction burst duration: 0.6184
  Fraction inter-burst duration: −0.1554
  Fraction inter-pulse duration within bursts: 0.1936
[1]; listed as sertraline
  Inter-burst duration, lower 95% CI: 16 160 ms
  Inter-burst duration, upper 95% CI: 36 270 ms
[2]
  depressive and anxiety behavior in mice: decreased
  effect on depressive and anxiety behavior in vagotomized mice: disappeared
  dependency of the effect on the vagus nerve: dependent on the vagus nerve; also recorded: same dependency of action

## CC(C)[C@@H](CC[C@@H](C)[C@H]1CC[C@H]2[C@@H]3[C@H](O)C[C@H]4C[C@@H](NCCCNCCCCN)CC[C@]4(C)[C@H]3CC[C@]12C)OS(=O)(=O)O [Squalamine, 3(3β,5α,7α,24R)-3-({3-[(4-aminobutyl)amino]propyl}amino)-7-hydroxycholestan-24-yl hydrogen sulfate]
[1]
  Average inter-pulse duration, lower 95% CI: 334 ms
  Average inter-pulse duration, upper 95% CI: 675 ms
  Burst duration, lower 95% CI: 111 ms
  Burst duration, upper 95% CI: 1954 ms
  Inter-burst duration, lower 95% CI: 11233 ms
  Inter-burst duration, upper 95% CI: 34229 ms
  Inter-pulse duration within bursts, lower 95% CI: 98 ms
  Inter-pulse duration within bursts, upper 95% CI: 136 ms
  Fraction average inter-pulse duration: −0.183
  Fraction burst duration: 0.6752
  Fraction inter-burst duration: −0.2957
  Fraction inter-pulse duration within bursts: 0.1394
[1]; listed as squalamine
  Burst duration, lower 95% CI: 110 ms
  Burst duration, upper 95% CI: 1 954 ms
  Inter-burst duration, lower 95% CI: 11 233 ms
  Inter-burst duration, upper 95% CI: 34 229 ms
  Inter-pulse duration within bursts, upper 95% CI: 136 ms
[1]; squalamine 10 μM in lumen
  vagus code compared with other antidepressants: almost identical vagus code as sertraline
[4]; increasing dosage schedule, 50 patients
  relief of constipation: positive beneficial effects
[4]; while patients were taking the drug
  neurological symptoms in PD patients like hallucinations, sleep and circadian rhythm disturbances: attenuated or prevented
[5]
  age and loperamide-related dysmotility: reversed
  effects on colonic motility: prokinetic effects
[6]
  vagal afferent firing frequency: increases

Source: patent US20190299005A1, “VAGUS NERVE STIMULATION AND MONITORING” (priority 2018, published 2019)
